Laboratory results published in paper PMC3021545, “Insulin Reduces Neuronal Excitability by Turning on GABAA Channels that Generate Tonic Current” (PLoS ONE, 2011).

System: T1, insulin-induced high-affinity extrasynaptic GABAA channels (α5, γ2 containing; α5βγ2) of CA1 pyramidal neurons
T1 construct: gene Gabra5
Conditions: insulin-treated (1 nM) slices; -60 mV; ambient GABA; 20-22 °C; inverse agonist

With `CCOC(=O)c1ncn2c1[C@@H]1CCCN1C(=O)c1cc(OC)ccc1-2` [L655, 708] the “% inhibition at 5 μM” value was 85±4%.
